Molecular target: IRAK4 (Homo sapiens (Human), UniProt Q9NWZ3)
Test: IRAK-4 AlphaScreen biochemical kinase assay
Conditions: 1 nM IRAK4, 1 mM ATP, 3.5 h at RT
Outline: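 AlphaScreen read-out: streptavidin beads bind the biotinylated peptide and protein A beads bind the anti-phosphothreonine antibody, so energy transfer reports phosphorylation of the peptide. The kinase is human IRAK-4.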

Sequence of IRAK4 (Q9NWZ3 whole entry, species assumed): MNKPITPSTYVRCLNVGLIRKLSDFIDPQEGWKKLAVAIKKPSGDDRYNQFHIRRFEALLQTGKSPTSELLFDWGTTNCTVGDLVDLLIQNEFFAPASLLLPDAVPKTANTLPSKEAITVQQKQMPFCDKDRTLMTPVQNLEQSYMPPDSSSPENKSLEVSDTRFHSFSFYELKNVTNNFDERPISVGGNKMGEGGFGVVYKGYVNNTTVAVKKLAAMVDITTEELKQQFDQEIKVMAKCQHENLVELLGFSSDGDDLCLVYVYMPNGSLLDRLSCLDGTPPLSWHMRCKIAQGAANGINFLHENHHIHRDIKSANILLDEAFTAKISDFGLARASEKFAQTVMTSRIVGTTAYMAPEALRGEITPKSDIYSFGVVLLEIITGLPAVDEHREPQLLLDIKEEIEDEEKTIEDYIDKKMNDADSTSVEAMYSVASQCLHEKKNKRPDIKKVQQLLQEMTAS

| IC50 | SMILES |
| --- | --- |
| < 100 nM | C[C@H](N)c1cccc(-c2cc(-c3ccncn3)c3cnn(-c4cccc(CO)n4)c3c2)n1 [Example 393, (S)-(6-(6-(6-(1-aminoethyl)pyridin-2-yl)-4-(pyrimidin-4-yl)-1H-indazol-1-yl)pyridin-2-yl)methanol] |
| < 100 nM | C[C@H](N)c1cccc(-c2cc(-c3cccnn3)c3cnn(-c4cccc(CO)n4)c3c2)n1 [Example 394, (S)-(6-(6-(6-(1-aminoethyl)pyridin-2-yl)-4-(pyridazin-3-yl)-1H-indazol-1-yl)pyridin-2-yl)methanol] |
| < 100 nM | Cn1ccc(-c2cc(-c3cccc([C@@H](N)CCCO)n3)cc3c2cnn3-c2cccc(CO)n2)n1 [Example 395, (S)-4-amino-4-(6-(1-(6-(hydroxymethyl)pyridin-2-yl)-4-(1-methyl-1H-pyrazol-3-yl)-1H-indazol-6-yl)pyridin-2-yl)butan-1-ol] |
| < 100 nM | N[C@@H](CCCO)c1cccc(-c2ccc3cnn(-c4cccc(CO)n4)c3c2)n1 [Example 396, (S)-4-amino-4-(6-(1-(6-(hydroxymethyl)pyridin-2-yl)-1H-indazol-6-yl)pyridin-2-yl)butan-1-ol] |
| 100 to 1000 nM | CCC[C@H](N)c1cccc(-c2ccc3cnn(-c4ccnc(CO)c4)c3c2)n1 [Example 400, (S)-(4-(6-(6-(1-aminobutyl)pyridin-2-yl)-1H-indazol-1-yl)pyridin-2-yl)methanol] |
| < 100 nM | CCC[C@H](N)c1cccc(-c2ccc3cnn(-c4ccnc(CO)n4)c3c2)n1 [Example 401, (S)-(4-(6-(6-(1-aminobutyl)pyridin-2-yl)-1H-indazol-1-yl)pyrimidin-2-yl)methanol] |
| < 100 nM | CCC[C@H](N)c1cccc(-c2ccc3cnn(-c4cccc(CO)c4)c3c2)n1 [Example 402, (S)-(3-(6-(6-(1-aminobutyl)pyridin-2-yl)-1H-indazol-1-yl)phenyl)methanol] |
| < 100 nM | CCC[C@H](N)c1cccc(-c2ccc3cnn(-c4nccc(CO)n4)c3c2)n1 [Example 403, (S)-(2-(6-(6-(1-aminobutyl)pyridin-2-yl)-1H-indazol-1-yl)pyrimidin-4-yl)methanol] |
| 100 to 1000 nM | CCC[C@H](N)c1ccnc(-c2ccc3cnn(-c4cccc(CO)n4)c3c2)c1 [Example 404, (S)-(6-(6-(4-(1-aminobutyl)pyridin-2-yl)-1H-indazol-1-yl)pyridin-2-yl)methanol] |
| < 100 nM | CCC[C@H](N)c1nccc(-c2ccc3cnn(-c4cccc(CO)n4)c3c2)n1 [Example 405, (S)-(6-(6-(2-(1-aminobutyl)pyrimidin-4-yl)-1H-indazol-1-yl)pyridin-2-yl)methanol] |
| < 100 nM | CCC[C@@H](N)c1nccc(-c2ccc3cnn(-c4cccc(CO)n4)c3c2)n1 [Example 406, (R)-(6-(6-(2-(1-aminobutyl)pyrimidin-4-yl)-1H-indazol-1-yl)pyridin-2-yl)methanol] |
| < 100 nM | CCC[C@H](N)c1cncc(-c2ccc3cnn(-c4cccc(CO)n4)c3c2)n1 [Example 407, (S)-(6-(6-(6-(1-aminobutyl)pyrazin-2-yl)-1H-indazol-1-yl)pyridin-2-yl)methanol] |
| < 100 nM | CCC[C@@H](N)c1cncc(-c2ccc3cnn(-c4cccc(CO)n4)c3c2)n1 [Example 408, (R)-(6-(6-(6-(1-aminobutyl)pyrazin-2-yl)-1H-indazol-1-yl)pyridin-2-yl)methanol] |
| < 100 nM | COc1cc(-c2cccc([C@@H](N)CCCO)n2)cc2c1cnn2-c1cccc(CO)n1 [Example 409, (S)-4-amino-4-(6-(1-(6-(hydroxymethyl)pyridin-2-yl)-4-methoxy-1H-indazol-6-yl)pyridin-2-yl)butan-1-ol] |
| < 100 nM | CCOc1cc(-c2cccc([C@@H](N)CCCO)n2)cc2c1cnn2-c1cccc(CO)n1 [Example 410, (S)-4-amino-4-(6-(4-ethoxy-1-(6-(hydroxymethyl)pyridin-2-yl)-1H-indazol-6-yl)pyridin-2-yl)butan-1-ol] |

— patent US10246456B2, “IRAK4 inhibiting agents” (BIOGEN MA INC., priority 2014, dated 2019)
